Where two headings read alike, the source gives them in different places.
Key:
Assay in all cases: NCI anticancer screen, SRB assay, 48 h
Format in all cases: cell-based, human
PC-3 (prostate) = conditions: for GI50: read-out: GI50
In short: (§1)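 Compounds were tested across fifty three human cancer cell lines from nine tumour types. Each line got a dose-response curve of at least five concentrations at 10-fold dilutions, with continuous drug exposure and sulforhodamine B protein staining to estimate viability or growth.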

[1] = tested on: K-562 (leukemia cell line)
In short: as §1

[2] = tested on: A549/ATCC (non-small cell lung)
In short: as §1

[3] = tested on: HOP-92 (non-small cell lung)
In short: as §1

MDA-MB-435 (melanoma) = tested on: MDA-MB-435 (melanoma)
In short: as §1

786-0 (renal) = tested on: 786-0 (renal)
In short: as §1

HCT-15 (colon) = tested on: HCT-15 (colon)
In short: as §1

A498 (renal) = tested on: A498 (renal)
In short: as §1

[4] = tested on: NCI-H322M (non-small cell lung)
In short: as §1

SN12C (renal) = tested on: SN12C (renal)
In short: as §1

OVCAR-4 (ovarian) = tested on: OVCAR-4 (ovarian)
In short: as §1

MDA-MB-231/ATCC (breast) = tested on: MDA-MB-231/ATCC (breast)
In short: as §1

[5] = tested on: HOP-62 (non-small cell lung)
In short: as §1

SK-MEL-5 (melanoma) = tested on: SK-MEL-5 (melanoma)
In short: as §1

ACHN (renal) = tested on: ACHN (renal)
In short: as §1

HCC-2998 (colon) = tested on: HCC-2998 (colon)
In short: as §1

CAKI-1 (renal) = tested on: CAKI-1 (renal)
In short: as §1

HS 578T (breast) = tested on: HS 578T (breast)
In short: as §1

U251 (CNS) = tested on: U251 (CNS)
In short: as §1

TK-10 (renal) = tested on: TK-10 (renal)
In short: as §1

LOX IMVI (melanoma) = tested on: LOX IMVI (melanoma)
In short: as §1

[6] = tested on: NCI-H23 (non-small cell lung)
In short: as §1

OVCAR-5 (ovarian) = tested on: OVCAR-5 (ovarian)
In short: as §1

MALME-3M (melanoma) = conditions: MALME-3M
In short: as §1

SNB-19 (CNS) = tested on: SNB-19 (CNS)
In short: as §1

KM12 (colon) = tested on: KM12 (colon)
In short: as §1

UACC-257 (melanoma) = tested on: UACC-257 (melanoma)
In short: as §1

OVCAR-8 (ovarian) = tested on: OVCAR-8 (ovarian)
In short: as §1

[7] = tested on: EKVX (non-small cell lung)
In short: as §1

[8] = tested on: RPMI-8226 (leukemia cell line)
In short: as §1

NCI/ADR-RES (ovarian) = tested on: NCI/ADR-RES (ovarian)
In short: as §1

SNB-75 (CNS) = tested on: SNB-75 (CNS)
In short: as §1

COLO 205 (colon) = tested on: COLO 205 (colon)
In short: as §1

HT29 (colon) = tested on: HT29 (colon)
In short: as §1

MCF7 (breast) = tested on: MCF7 (breast)
In short: as §1

[9] = tested on: NCI-H226 (non-small cell lung)
In short: as §1

[10] = 48 h exposure, SRB, read-out: GI50

COc1ccc(-c2cn(-c3cccc(C(=O)/C=C/c4cc(OC)c(OC)c(OC)c4)c3)c(=O)[nH]2)cc1 [5b, 4-(4-methoxyphenyl)-1-3-[(E)-3-(3,4,5-trimethoxyphenyl)-2-propenoyl]phenyl-2,3-dihydro-1H-2-imidazolone]
pGI50 (-log of molar concentration causing 50% inhibition of net cell growth) (PC-3 (prostate); PC-3): 5.21
GI50 (PC-3 (prostate); PC-3, 48 h exposure, SRB): 6220 nM
GI50 (PC-3 (prostate); one prostate cancer cell line (PC-3), exposure at least 48 hrs): 6220 nM
pGI50 (-log of molar concentration causing 50% inhibition of net cell growth) [1]: 5.90
GI50 [1, 10]: 1270 nM
pGI50 (-log of molar concentration causing 50% inhibition of net cell growth) [2]: 4.93
GI50 [2, 10]: 11800 nM
pGI50 (-log of molar concentration causing 50% inhibition of net cell growth) [3]: 4.83
GI50 [3, 10]: 14900 nM
pGI50 (-log of molar concentration causing 50% inhibition of net cell growth) (MDA-MB-435 (melanoma)): 5.73
GI50 (MDA-MB-435 (melanoma); [10]): 1860 nM
pGI50 (-log of molar concentration causing 50% inhibition of net cell growth) (786-0 (renal)): 5.79
GI50 (786-0 (renal); [10]): 1610 nM
pGI50 (-log of molar concentration causing 50% inhibition of net cell growth) (HCT-15 (colon)): 5.86
GI50 (HCT-15 (colon); [10]): 1380 nM
pGI50 (-log of molar concentration causing 50% inhibition of net cell growth) (A498 (renal)): 5.38
GI50 (A498 (renal); [10]): 4210 nM
pGI50 (-log of molar concentration causing 50% inhibition of net cell growth) [4]: 5.58
GI50 [4, 10]: 2660 nM
pGI50 (-log of molar concentration causing 50% inhibition of net cell growth) (SN12C (renal); SN 12C): 5.46
GI50 (SN12C (renal); SN12C, 48 h exposure, SRB, read-out: GI50): 3500 nM
pGI50 (-log of molar concentration causing 50% inhibition of net cell growth) (OVCAR-4 (ovarian)): 5.45
GI50 (OVCAR-4 (ovarian); [10]): 3570 nM
pGI50 (-log of molar concentration causing 50% inhibition of net cell growth) (MDA-MB-231/ATCC (breast)): 5.26
GI50 (MDA-MB-231/ATCC (breast); [10]): 5480 nM
pGI50 (-log of molar concentration causing 50% inhibition of net cell growth) [5]: 5.23
GI50 [5, 10]: 5910 nM
pGI50 (-log of molar concentration causing 50% inhibition of net cell growth) (SK-MEL-5 (melanoma)): 5.69
GI50 (SK-MEL-5 (melanoma); [10]): 2030 nM
pGI50 (-log of molar concentration causing 50% inhibition of net cell growth) (ACHN (renal)): 5.74
GI50 (ACHN (renal); [10]): 1820 nM
pGI50 (-log of molar concentration causing 50% inhibition of net cell growth) (HCC-2998 (colon)): 5.79
GI50 (HCC-2998 (colon); [10]): 1640 nM
pGI50 (-log of molar concentration causing 50% inhibition of net cell growth) (CAKI-1 (renal)): 5.52
GI50 (CAKI-1 (renal); [10]): 3050 nM
pGI50 (-log of molar concentration causing 50% inhibition of net cell growth) (HS 578T (breast)): 5.47
GI50 (HS 578T (breast); [10]): 3390 nM
pGI50 (-log of molar concentration causing 50% inhibition of net cell growth) (U251 (CNS)): 6.06
GI50 (U251 (CNS); [10]): 880 nM
pGI50 (-log of molar concentration causing 50% inhibition of net cell growth) (TK-10 (renal)): 5.52
GI50 (TK-10 (renal); [10]): 3040 nM
pGI50 (-log of molar concentration causing 50% inhibition of net cell growth) (LOX IMVI (melanoma)): 6.14
GI50 (LOX IMVI (melanoma); [10]): 720 nM
pGI50 (-log of molar concentration causing 50% inhibition of net cell growth) [6]: 5.79
GI50 [6, 10]: 1630 nM
pGI50 (-log of molar concentration causing 50% inhibition of net cell growth) (OVCAR-5 (ovarian)): 5.58
GI50 (OVCAR-5 (ovarian); [10]): 2640 nM
pGI50 (-log of molar concentration causing 50% inhibition of net cell growth) (MALME-3M (melanoma)): 5.75
GI50 (MALME-3M (melanoma); [10]): 1790 nM
pGI50 (-log of molar concentration causing 50% inhibition of net cell growth) (SNB-19 (CNS)): 5.36
GI50 (SNB-19 (CNS); [10]): 4380 nM
pGI50 (-log of molar concentration causing 50% inhibition of net cell growth) (KM12 (colon)): 5.85
GI50 (KM12 (colon); [10]): 1420 nM
pGI50 (-log of molar concentration causing 50% inhibition of net cell growth) (UACC-257 (melanoma)): 5.52
GI50 (UACC-257 (melanoma); [10]): 3040 nM
pGI50 (-log of molar concentration causing 50% inhibition of net cell growth) (OVCAR-8 (ovarian)): 5.60
GI50 (OVCAR-8 (ovarian); [10]): 2530 nM
pGI50 (-log of molar concentration causing 50% inhibition of net cell growth) [7]: 5.38
GI50 [7, 10]: 4200 nM
pGI50 (-log of molar concentration causing 50% inhibition of net cell growth) [8]: 6.04
GI50 [8, 10]: 920 nM
pGI50 (-log of molar concentration causing 50% inhibition of net cell growth) (NCI/ADR-RES (ovarian); NCI/ADR-RES): 5.77
GI50 (NCI/ADR-RES (ovarian); NCl/ADR-RES, 48 h exposure, SRB, read-out: GI50): 1700 nM
pGI50 (-log of molar concentration causing 50% inhibition of net cell growth) (SNB-75 (CNS)): 5.34
GI50 (SNB-75 (CNS); [10]): 4590 nM
pGI50 (-log of molar concentration causing 50% inhibition of net cell growth) (COLO 205 (colon); COLO205): 5.74
GI50 (COLO 205 (colon); COLO 205, 48 h exposure, SRB, read-out: GI50): 1840 nM
pGI50 (-log of molar concentration causing 50% inhibition of net cell growth) (HT29 (colon)): 5.89
GI50 (HT29 (colon); [10]): 1280 nM
pGI50 (-log of molar concentration causing 50% inhibition of net cell growth) (MCF7 (breast)): 6.36
GI50 (MCF7 (breast); [10]): 440 nM
pGI50 (-log of molar concentration causing 50% inhibition of net cell growth) [9]: 4.45
GI50 [9, 10]: 35200 nM
